# Source: patent US20030054549A1, “Stem cell reinforcing material” (priority 2000, published 2003)
# Tests used:
# [1] = test system: bone marrow hematopoietic stem cells; test: Example 4: mouse spleen colony method with radiation exposure and bone marrow transplant, female rats, mixture vs genistein vs 17β estradiole; format: in vivo; conditions: female ICR, 8 Gy; for spleen weight after radiation exposure per 10 g body weight: day 10 after bone marrow transplant
# Description: They were reared with five rats in each group.
# With the exception of comparative groups 8 and 9, bone marrow transplant was performed 24 hours after radiation exposure on the rats of comparative groups 10 and 11 as well as those of experimental groups 7, 8, and 9.
# Body weight of all rats was determined when rearing was started, after one week, and after two weeks and before bone marrow transplant and on day 5, day 7 and day 10 after transplant.
# [2] = test system: bone marrow hematopoietic cells and reproductive stem cells
# Description: 1) Healthy male rats of equal body weight in each group were reared as the sample (male ICR) (six weeks old). They were reared with 10 rats each in comparative groups 3, 4 and 5 as well as experimental group 4 and 5 rats in experimental group 3.
# The rats of comparative groups 4 and 5 as well as experimental groups 3 and 4 were systemically exposed one time only to a dose of 8 Gy after three weeks of rearing.
# Bone marrow transplant was performed on the rats of each group 24 hours after radiation exposure. In this case, the femur of a donor rat of the same species was cut out. A small piece was cut off from both ends of the femur with a clean bench. Once 1 ml RPMI medium 1640 medium containing 10% antibiotic-antimycotic was injected with a syringe from one end through the medullary cavity, it was pushed into a test tube. The marrow cell count was adjusted to 10^5/ml and 0.5 ml was injected from a caudal vein. The donor rat had been systemically exposed to 2 Gy radiation and reared for three weeks on feed of 1 wt % of the koji mold soybean fermentation and cultivation product added to ordinary food.
# All of the rats were sacrificed, the spleen was excised, spleen weight and the number of spleen colonies formed were determined, and the […] were likewise excised and testicle weight was determined after determining body weight on day 7 after bone marrow transplant.
# Body weight of all rats was determined before bone marrow transplant and on day 7 after transplant.
smiles,measurement,setting,value
C[C@]12CC[C@@H]3c4ccc(O)cc4CC[C@H]3[C@@H]1CC[C@@H]2O [17β estradiole],spleen weight after radiation exposure per 10 g body weight,[1]; 10 μg/kg body weight in feed,"lower values than experimental groups 7, 8 and 9"
same,spleen colony formation,"[1]; 10 μg/kg body weight in feed, day 10 after transplant",no augmentation whatsoever
O=c1c(-c2ccc(O)cc2)coc2cc(O)cc(O)c12 [genistein],spleen weight after radiation exposure per 10 g body weight,"[1]; 30 mg/kg body weight in feed, vs comparative groups 9 and 10",significantly higher
same,number of spleen colonies that formed following transplant after radiation exposure,"[1]; 30 mg/kg body weight in feed, day 10 after transplant, vs comparative groups 10 and 11",significantly higher
same,body weight,"[1]; 30 mg/kg body weight in feed, judging from day 7 after radiation exposure",tendency toward an increase
CN(C)CCOc1ccc(/C(=C(/CCCl)c2ccccc2)c2ccccc2)cc1 [toremifen],spleen weight after radiation exposure per 10 g body weight,"[2]; male ICR, 30 mg/kg body weight in feed, 8 Gy, day 7 after bone marrow transplant, compared to unexposed comparative group 3",somewhat lower value than the others
same,testicle weight after radiation exposure per 10 g body weight,"[2]; male ICR, 30 mg/kg body weight in feed, 8 Gy, day 7 after transplant, compared to unexposed comparative group 3",likewise lower
same,toxicity (spleen weight and body weight lower),"[2]; rat, in vivo, 30 mg/kg",considerably stronger than isoflavone aglycone
